Data reported in patent publication US6355784B1, “Methods and compositions for the manufacture of halogenated anthracyclines with increased antitumor activity, other anthracyclines, halogenated sugars, and glycosyl donors” (priority 1998, dated 2002).
In brackets after ≈: the same amount, converted by molar mass.

Tests used:
MCF-7 cells = test: MTT cytotoxicity assay, wild-type MCF-7 cells; conditions: for cytotoxicity in sensitive MCF-7 cells, in words: compared with DOX; for ID50 MCF-7: sensitive human breast carcinoma MCF-7 cells, MTT, 72 hours
KB cells = test: MTT cytotoxicity assay, sensitive KB cells; conditions: sensitive human carcinoma KB cells, 72 hours
MCF-7/DOX (MDR) cells = test: MTT cytotoxicity assay, MDR MCF-7/DOX cells; conditions: for ID50 MCF-7/DOX (MDR): MDR-overexpressing MCF-7/DOX cells, MTT, 72 hours; for RI (resistance index) MCF-7/DOX vs MCF-7: ratio of ID50 in MCF-7 and MCF-7/DOX cells
KBVI (MDR) cells = test: MTT cytotoxicity assay, multi-drug-resistant KBV1 cells; conditions: for ID50 KBVI (MDR): multi-drug-resistant KBV1 cells overexpressing MDR1 (P-gp), MTT, 72 hours; for RI (resistance index) KBVI vs KB: ratio of ID50 in KB and KBVI cells
MCF-7/VP-16 (MRP) cells = conditions: for ID50 MCF-7/VP-16 (MRP): MRP-overexpressing MCF-7/VP-16 cells, MTT, 72 hours; for RI (resistance index) MCF-7/VP-16 vs MCF-7: ratio of ID50 in MCF-7 and MCF-7/VP-16 cells
amyloid enhancing factor = conditions: preincubation of the amyloid enhancing factor with IDOX; cited from earlier work
amyloid fibrils = conditions: cited from earlier work
amyloidosis = conditions: as a result of amyloid resorption; cited from earlier work
prion disease = conditions: cited from earlier work

| Molecule | ID50 MCF-7 (MCF-7 cells) | ID50 KB (KB cells) | ID50 MCF-7/DOX (MDR) (MCF-7/DOX (MDR) cells) | ID50 KBVI (MDR) (KBVI (MDR) cells) | ID50 MCF-7/VP-16 (MRP) (MCF-7/VP-16 (MRP) cells) | RI (resistance index) MCF-7/VP-16 vs MCF-7 (MCF-7/VP-16 (MRP) cells) | also measured |
| --- | --- | --- | --- | --- | --- | --- | --- |
| COc1cccc2c1C(=O)c1c(O)c3c(c(O)c1C2=O)CC(O)(C(C)=O)CC3OC1CC(N)C(F)C(C)O1.Cl (centres unmarked) [WP 715, 4′-deoxy-4′-fluoro-daunorubicin hydrochloride] | 1.5 ± 1.4 µg/mL | 3.15 ± 0.9 µg/mL | 2.2 µg/mL | 4.1 ± 0.6 µg/mL | – | – | cytotoxicity in sensitive MCF-7 cells, in words (MCF-7 cells): less potent than DOX; cytotoxicity against resistant MCF-7/DOX cells, in words (MCF-7/DOX (MDR) cells): highly cytotoxic against resistant cells |
| COc1cccc2c1C(=O)c1c(O)c3c(c(O)c1C2=O)C[C@@](O)(C(=O)CO)C[C@@H]3O[C@H]1C[C@H](N)[C@H](O)[C@H](C)O1 [DOX, doxorubicin, reference compound] | 0.38 µg/mL (≈ 0.699 µM) | 4.1 ± 0.3 µg/mL (≈ 7.54 µM) | >100 µg/mL | >100 µg/mL | 6.2 µg/mL (≈ 11.4 µM) | 16.3 | RI fold higher than that of WP 715 and WP 722 (MCF-7/DOX (MDR) cells; MCF-7/DOX cells): 180 fold; RI (resistance index) MCF-7/DOX vs MCF-7 (MCF-7/DOX (MDR) cells): >263; cytotoxicity against MDR KB-V1 cells, in words (KBVI (MDR) cells): inactive |
| COc1cccc2c1C(=O)c1c(O)c3c(c(O)c1C2=O)CC(O)(C(=O)CO)CC3OC1CC(O)C(F)(F)C(C)O1 (centres unmarked) [WP 600, 3′-deamino-4′-deoxy-4′,4′-difluoro-3′-hydroxy-doxorubicin] | – | – | – | 16.9 ± 2.3 µg/mL (≈ 29.9 µM) | – | – | – |
| COc1cccc2c1C(=O)c1c(O)c3c(c(O)c1C2=O)CC(O)(C(=O)CO)CC3OC1CC(N)C(F)C(C)O1 (centres unmarked) [WP 722, 4′-deoxy-4′-fluoro-doxorubicin] | 1.3 ± 1.6 µg/mL (≈ 2.38 µM) | 2.1 ± 2.5 µg/mL (≈ 3.85 µM) | 1.9 µg/mL (≈ 3.48 µM) | 3.3 ± 0.4 µg/mL (≈ 6.05 µM) | 4.2 ± 5.0 µg/mL (≈ 7.7 µM) | 3.23 | cytotoxicity in sensitive MCF-7 cells, in words (MCF-7 cells): less potent than DOX; cytotoxicity against resistant MCF-7/DOX cells, in words (MCF-7/DOX (MDR) cells): highly cytotoxic against resistant cells; cytotoxicity in MCF-7/VP-16 cells, in words (MCF-7/VP-16 (MRP) cells; compared with DOX): significant increase in cytotoxicity; RI (resistance index) KBVI vs KB (KBVI (MDR) cells): 1.57 |
| 6′-fluoro-doxorubicin [WP 743] | 0.2 µg/mL | 0.64 µg/mL | >10 µg/mL | 41 µg/mL | 2.3 µg/mL | 11.5 | RI (resistance index) MCF-7/DOX vs MCF-7 (MCF-7/DOX (MDR) cells): 50; RI (resistance index) KBVI vs KB (KBVI (MDR) cells): 64 |
| COc1cccc2c1C(=O)c1c(O)c3c(c(O)c1C2=O)CC(O)(C(=O)CO)CC3OC1CC(N)C(I)C(C)O1 (centres unmarked) [IDOX, 4′-iodo-4′-deoxydoxorubicin] | – | – | – | – | – | – | formation of amyloid deposits (amyloid enhancing factor): significantly reduces formation of amyloid deposits; binding to amyloid fibrils (amyloid fibrils): binds strongly; clinical outcome in patients with amyloidosis (amyloidosis): substantial clinical improvement; onset of disease (prion disease; Syrian-hamster prion model): delayed onset of the disease; survival time (prion disease; Syrian-hamster prion model): prolonged; accumulation of amyloid fibrils in brain (prion disease; neuropathological examination, versus untreated controls): delay in the accumulation of amyloid fibrils |
| COc1cccc2c1C(=O)c1c(O)c3c(c(O)c1C2=O)CC(O)(C(=O)CO)CC3OC1CC(O)C(F)C(C)O1 (centres unmarked) [WP 563, 3′-Deamino-4′-fluoro-3′-hydroxydoxorubicin] | – | – | – | 2.74 ± 2.9 µg/mL (≈ 5.01 µM) | – | – | – |
